Test results as given in US20240368667A1, “RAPID, LABEL-FREE ANTIBIOTIC SUSCEPTIBILITY OF BACTERIA DIRECTLY FROM POSITIVE BLOOD OR BODILY FLUID/CULTURE” (priority 2021, published 2024).
Converted amounts (≈) assume the structure as drawn. One block for each molecule: values may come before it.

Legend:
P. aeruginosa 77 = assay: Microbroth dilution MIC with and without sucrose recovery; assay type: cell-based, Pseudomonas aeruginosa; details: MIC given as multiple of S/I/R
Protocol: (§1) Microbroth dilution for minimum inhibitory concentrations (MIC) with and without sucrose recovery. To isolate bacteria without sucrose, culture media from positive BacT/alert FA PLUS aerobic culture bottles (bioMérieux, Durham, NC) was serially diluted and plated onto LB agar (Lennox; Sigma-Aldrich, St. Louis, MO). Bacterial suspensions were prepared by resuspending colonies in CAMHB with incubation on a MaxQ 4000 incubator shaker (Thermo Fisher Scientific, Waltham, MA) at 37° C. and ˜225 rpm for 3 hours. Bacteria recovered via Method 2 were diluted 10-fold in CAMHB. Following incubation or sucrose recovery and dilution, bacterial suspensions were adjusted to ˜0.004 OD600 with CAMHB and a 50-μL aliquot distributed to each well of a 96-well plate containing CAMHB with and without clinically relevant antibiotics (2-fold dilution series). Gram-negative plates included: ceftazidime (3rd generation cephalosporin, RPI corp., Mount Prospect, IL), cefepime (4th generation cephalosporin, Chem-Impex Int'l, Wood Dale, IL), meropenem (carbapenem, Tokyo Chemical Industry, Tokyo, Japan), levofloxacin (quinolone, Alfa Aesar, Haverhill, MA), and tobramycin (aminoglycoside, MP Biomedicals LLC, Santa Ana, CA), while S. aureus plates contained: oxacillin (beta-lactam, Sigma-Aldrich, St. Louis, MO), vancomycin (glycopeptide, Santa Cruz Biotechnology, Dallas, TX), erythromycin (macrolide, Sigma-Aldrich, St. Louis, MO), clindamycin ([…]), and ciprofloxacin (fluoroquinolone, Sigma-Aldrich, St. Louis, MO). Antibiotic plates were incubated at 37° C. for 16-20 hours (gram-negative) or 35° C. for 24 hours (S. aureus), at which time, plates were removed from the incubator and visually inspected for bacterial growth. The MIC was set at the lowest antibiotic concentration at which no growth was detected.
(§2) Influence of Sucrose on Bacterial MIC. To rule out the potential effect of sucrose exposure in bacterial antibiotic susceptibility, microbroth dilution studies were performed on bacteria recovered using standard practices (i.e. plating following positive blood culture) and through selective lysis coupled with centrifugation through the sucrose cushion (Method 2).

E. coli 79 = assay: as above; assay type: cell-based, Escherichia coli; details: MIC given as multiple of S/I/R; for minimum inhibitory concentration (MIC), Standard: E. coli 79 recovered by standard plating
Protocol: as §1, §2

S. aureus 78 = assay: as above; assay type: cell-based, Staphylococcus aureus; details: MIC given as multiple of S/I/R; for minimum inhibitory concentration (MIC), Standard: S. aureus 78 recovered by standard plating; for minimum inhibitory concentration (MIC), Sucrose: S. aureus 78 recovered through sucrose (Method 2)
Protocol: as §1, §2

S. aureus [1] = assay: Influence of sucrose on bacterial growth (OD600); assay type: cell-based, Staphylococcus aureus; details: S. aureus recovered in 55% sucrose (w/v), undiluted, 37° C. with shaking
Protocol: (§3) Influence of sucrose on bacterial growth. To determine the effects of sucrose concentration on bacterial growth, bacteria recovered from positive blood cultures following Method 2 were diluted 1-fold (i.e. undiluted), 2-fold, 5-fold, 10-fold, 20-fold, and 100-fold in fresh CAMHB within a 96-well plate. The CAMHB broth inoculated with a fresh overnight culture was used as a positive control. Following dilution, samples were incubated at 37° C. with shaking, and growth was monitored at 15-min intervals via OD600 measurements using a plate reader (Hidex, Turku, Finland). To further investigate the effects of sucrose on bacterial growth, recovered bacteria-sucrose solutions were diluted 10-fold (optimal dilution factor) and growth was compared to control cultures inoculated with the original blood culture, an overnight culture, or colony resuspension without sucrose exposure. Growth (37° C. with shaking) was monitored via OD600 measurements using a Hidex plate reader.
(§4) Impact of sucrose on bacterial growth. […] Recovered bacteria within 55% sucrose (w/v) were directly or 2-fold (27.5%), 5-fold (11%), 10-fold (5.5%), 20-fold (2.75%), and 100-fold (0.55%) diluted in CAMHB and growth monitored on a plate reader set at 37° C. with medium shaking. […]

E. coli = assay: Influence of sucrose on bacterial growth (OD600); assay type: cell-based, Escherichia coli; details: E. coli recovered in 55% sucrose (w/v), undiluted, 37° C. with shaking
Protocol: as §3, §4

P. aeruginosa = assay: Influence of sucrose on bacterial growth (OD600); assay type: cell-based, Pseudomonas aeruginosa; details: P. aeruginosa recovered in 55% sucrose (w/v), undiluted, 37° C. with shaking
Protocol: as §3, §4

S. aureus [2] = assay: Broth microdilution (BMD) MIC; assay type: cell-based, Staphylococcus aureus; details: for MIC: Staphylococcus aureus
Protocol: as §1

S. aureus [3] = assay: Direct flow cytometric AST (high-throughput flow cytometry, HTFC) of sucrose-recovered bacteria; assay type: cell-based, Staphylococcus aureus; details: for MIC: Staphylococcus aureus
Protocol: AST workflow using bacteria recovered directly from positive blood culture. A 1-mL aliquot of bacteria recovered using separation method 2 was diluted 10-fold in CAMHB, the OD600 adjusted to ˜0.01, and a 50 μL aliquot distributed into each well of a 96-well plate containing CAMHB with and without ceftazidime, tobramycin, and either meropenem (E. coli and P. aeruginosa) or oxacillin (S. aureus). Following Clinical and Laboratory Standards Institute (CLSI) guidelines^33, 2% sodium chloride (NaCl) was present in wells containing oxacillin to assist in the detection of methicillin-resistant S. aureus (MRSA). […] To account for observed differences in doubling and lag times, E. coli and P. aeruginosa were incubated for 4 hours at 37° C., while S. aureus was incubated for 9 hours at 35° C. After incubation, antibiotic plates were removed from the incubator and directly stored on ice (i.e. no post-processing) until high-throughput flow cytometry (BD LSRFortessa with HTS-system, BD, Franklin Lakes, NJ). No-antibiotic controls and antibiotic-treated samples were handled identically.
MIC Determination by flow cytometry. Because antibiotic effects are observed in both the position of scatter signatures (morphology changes) and count rates (growth inhibition), a modified count rate, accounting for scatter position, was used to evaluate susceptibility. Briefly, no-antibiotic control populations (triplicate) were pooled, binned, and a convex hull boundary set at 1-standard deviation above the background (not including bins with zero counts) was drawn. […] The overlap ratio, measuring changes in morphology, was then computed by dividing the number of sample events within the no-antibiotic control boundary by the total number of events within the sample. As an increase in count rate attributed to viable bacteria in antibiotic-treated samples is not scientifically meaningful, the fractional overlap was multiplied by the minimum of the control and sample count rates to generate a modified count rate accounting for antibiotic-induced morphological changes. All modified count rates were normalized by the average of the no-antibiotic controls. For automatic MIC determination, normalized count rates corresponding to n (index of predicted MIC), n+1, n+2 were iteratively fit to a linear function with a frameshift of n+1 between iterations (FIGS. 8 and 9). […] A threshold of −0.01 instead of zero was used to mitigate the influence of small fluctuations in normalized count rates on susceptibility determinations.

minimum inhibitory concentration (MIC), Standard (P. aeruginosa 77; P. aeruginosa 77 recovered by standard plating): ½S | minimum inhibitory concentration (MIC), Sucrose (P. aeruginosa 77; P. aeruginosa 77 recovered through sucrose (Method 2)): ¼S | minimum inhibitory concentration (MIC), Standard (E. coli 79): 2R
Compound: CO/N=C(\C(=O)N[C@@H]1C(=O)N2C(C(=O)[O-])=C(C[N+]3(C)CCCC3)CS[C@H]12)c1csc(N)n1 [Cefepime, cefepime]

Compound: CN[C@H](CC(C)C)C(=O)N[C@H]1C(=O)N[C@@H](CC(N)=O)C(=O)N[C@H]2C(=O)N[C@H]3C(=O)N[C@H](C(=O)N[C@H](C(=O)O)c4cc(O)cc(O)c4-c4cc3ccc4O)[C@H](O)c3ccc(c(Cl)c3)Oc3cc2cc(c3O[C@@H]2O[C@H](CO)[C@@H](O)[C@H](O)[C@H]2O[C@H]2C[C@](C)(N)[C@H](O)[C@H](C)O2)Oc2ccc(cc2Cl)[C@H]1O [Vancomycin, vancomycin]
minimum inhibitory concentration (MIC), Standard (S. aureus 78): ¼S | minimum inhibitory concentration (MIC), Sucrose (S. aureus 78): ⅛S

minimum inhibitory concentration (MIC), Standard (S. aureus 78): 4R | minimum inhibitory concentration (MIC), Sucrose (S. aureus 78): 2R
Compound: CC[C@H]1OC(=O)[C@H](C)[C@@H](O[C@H]2C[C@@](C)(OC)[C@@H](O)[C@H](C)O2)[C@H](C)[C@@H](O[C@@H]2O[C@H](C)C[C@H](N(C)C)[C@H]2O)[C@](C)(O)C[C@@H](C)C(=O)[C@H](C)[C@@H](O)[C@]1(C)O [Erythromycin, erythromycin]

Compound: OC[C@H]1O[C@@](CO)(O[C@H]2O[C@H](CO)[C@@H](O)[C@H](O)[C@H]2O)[C@@H](O)[C@@H]1O [sucrose, D (+)-sucrose]
bacterial growth (OD600) (S. aureus [1]): inhibiting growth completely | bacterial growth (OD600) (E. coli): inhibiting growth completely | bacterial growth (OD600) (P. aeruginosa): inhibiting growth completely

minimum inhibitory concentration (MIC), Standard (E. coli 79): >4R | minimum inhibitory concentration (MIC), Sucrose (E. coli 79; E. coli 79 recovered through sucrose (Method 2)): 4R
Compound: C[C@H]1COc2c(N3CCN(C)CC3)c(F)cc3c(=O)c(C(=O)O)cn1c23 [Levofloxacin, levofloxacin]

Compound: Cc1onc(-c2ccccc2)c1C(=O)N[C@@H]1C(=O)N2[C@@H]1SC(C)(C)[C@@H]2C(=O)O [Oxacillin, oxacillin]
minimum inhibitory concentration (MIC), Standard (S. aureus 78): 4R | minimum inhibitory concentration (MIC), Sucrose (S. aureus 78): 4R | susceptibility classification, BMD (S. aureus [2]; S. aureus ATCC25923): (MSSA) | susceptibility classification, BMD (S. aureus [2]; S. aureus ATCC29213): (MSSA) | susceptibility classification, BMD (S. aureus [2]; S. aureus ATCC43300): (MRSA) | susceptibility classification, BMD (S. aureus [2]; S. aureus Blood Culture A): (MSSA) | susceptibility classification, BMD (S. aureus [2]; S. aureus Blood Culture B): (MRSA) | susceptibility classification, BMD (S. aureus [2]; S. aureus NRS382): (MRSA) | susceptibility classification, BMD (S. aureus [2]; S. aureus NRS385): (MRSA) | MIC (S. aureus [2]; ATCC25923, read-out: Minimum inhibitory concentration, BMD, S. aureus ATCC25923): 0.125 µg/mL (≈ 0.311 µM) | MIC (S. aureus [2]; ATCC29213, read-out: Minimum inhibitory concentration, BMD, S. aureus ATCC29213): 0.25 µg/mL (≈ 0.623 µM) | MIC (S. aureus [2]; ATCC43300, read-out: Minimum inhibitory concentration, BMD, S. aureus ATCC43300): 16 µg/mL (≈ 39.9 µM) | MIC (S. aureus [2]; S. aureus NRS382, read-out: Minimum inhibitory concentration, BMD): > 16 µg/mL | MIC (S. aureus [2]; S. aureus NRS385, read-out: Minimum inhibitory concentration, BMD): > 16 µg/mL | MIC (S. aureus [2]; read-out: Minimum inhibitory concentration, BMD, S. aureus Blood Culture A): 0.125 µg/mL (≈ 0.311 µM) | MIC (S. aureus [2]; read-out: Minimum inhibitory concentration, BMD, S. aureus Blood Culture B): > 16 µg/mL | susceptibility classification, HTFC (S. aureus [3]; S. aureus ATCC25923, oxacillin 9 hours (35° C.)): (MSSA) | susceptibility classification, HTFC (S. aureus [3]; S. aureus ATCC29213, oxacillin 9 hours (35° C.)): (MSSA) | susceptibility classification, HTFC (S. aureus [3]; S. aureus ATCC43300, oxacillin 9 hours (35° C.)): (MRSA) | susceptibility classification, HTFC (S. aureus [3]; S. aureus Blood Culture A, oxacillin 9 hours (35° C.)): (MSSA) | susceptibility classification, HTFC (S. aureus [3]; S. aureus Blood Culture B, oxacillin 9 hours (35° C.)): (MRSA) | susceptibility classification, HTFC (S. aureus [3]; S. aureus NRS382, oxacillin 9 hours (35° C.)): MRSA | susceptibility classification, HTFC (S. aureus [3]; S. aureus NRS385, oxacillin 9 hours (35° C.)): MRSA | MIC (S. aureus [3]; 9 h, read-out: Minimum inhibitory concentration, HTFC, S. aureus Blood Culture A, oxacillin 9 hours (35° C.)): 0.125 µg/mL (≈ 0.311 µM) | MIC (S. aureus [3]; 9 h, read-out: Minimum inhibitory concentration, HTFC, S. aureus Blood Culture B, oxacillin 9 hours (35° C.)): 4 µg/mL (≈ 9.96 µM) | MIC (S. aureus [3]; ATCC25923, 9 h, read-out: Minimum inhibitory concentration, HTFC, S. aureus ATCC25923, oxacillin 9 hours (35° C.)): 0.25 µg/mL (≈ 0.623 µM) | MIC (S. aureus [3]; ATCC29213, 9 h, read-out: Minimum inhibitory concentration, HTFC, S. aureus ATCC29213, oxacillin 9 hours (35° C.)): 2 µg/mL (≈ 4.98 µM) | MIC (S. aureus [3]; ATCC43300, 9 h, read-out: Minimum inhibitory concentration, HTFC, S. aureus ATCC43300, oxacillin 9 hours (35° C.)): > 4 µg/mL | MIC (S. aureus [3]; S. aureus NRS382, oxacillin 9 hours (35° C.), read-out: Minimum inhibitory concentration, HTFC): > 4 µg/mL | MIC (S. aureus [3]; S. aureus NRS385, oxacillin 9 hours (35° C.), read-out: Minimum inhibitory concentration, HTFC): > 4 µg/mL

minimum inhibitory concentration (MIC), Standard (S. aureus 78): 4R | minimum inhibitory concentration (MIC), Sucrose (S. aureus 78): 4R
Compound: CCC[C@@H]1C[C@@H](C(=O)N[C@@H]([C@H]2O[C@H](SC)[C@H](O)[C@@H](O)[C@H]2O)[C@H](C)Cl)N(C)C1 [Clindamycin, clindamycin]
